Measured values reported in the NIST ThermoML archive (doi:10.1016/j.tca.2016.04.001).

Tests used:
[1] = 87 kPa, Liquid, Vibrating tube method
[2] = xn = mol fraction of the nth substance listed; settings: 87 kPa, Liquid, Vibrating tube method

OC(CCl)CCl [1,3-dichloro-2-propanol]
[1]
Settings | mass density [kg/m3]
293.15 K | 1362.66
298.15 K | 1356.74
303.15 K | 1350.72
308.15 K | 1344.71
313.15 K | 1338.65

OCc1ccccc1 [benzenemethanol]
[1]
Settings | mass density [kg/m3]
293.15 K | 1045.21
298.15 K | 1041.38
303.15 K | 1037.5
308.15 K | 1033.63
313.15 K | 1029.71

OC(CCl)CCl [1,3-dichloro-2-propanol] + C=COC(C)=O
mass density [kg/m3], [2]
Settings | 293.15 K | 298.15 K | 303.15 K | 308.15 K | 313.15 K
x1 = 0.0481 | 954.28 | 947.93 | 941.53 | 935.07 | 928.57
x1 = 0.1022 | 978.78 | 972.47 | 966.08 | 959.68 | 953.24
x1 = 0.2021 | 1023.42 | 1017.18 | 1010.91 | 1004.52 | 998.25
x1 = 0.2995 | 1066.61 | 1060.46 | 1054.25 | 1048 | 1041.72
x1 = 0.3953 | 1108.66 | 1102.54 | 1096.39 | 1090.21 | 1083.96
x1 = 0.5002 | 1154.23 | 1148.18 | 1142.09 | 1135.96 | 1129.81
x1 = 0.6003 | 1197.18 | 1191.17 | 1185.12 | 1179.04 | 1172.93
x1 = 0.6999 | 1239.3 | 1233.34 | 1227.29 | 1221.25 | 1215.17
x1 = 0.8007 | 1281.45 | 1275.5 | 1269.5 | 1263.47 | 1257.41
x1 = 0.9014 | 1322.94 | 1317 | 1311 | 1304.98 | 1298.92
x1 = 0.9524 | 1343.43 | 1337.48 | 1331.49 | 1325.46 | 1319.4
x1 = 1 | 1362.66 | 1356.74 | 1350.72 | 1344.71 | 1338.65

CCOC(C)=O [ethyl acetate] + OC(CCl)CCl
[2], x2 = 0
Settings | mass density [kg/m3]
293.15 K | 900.71
298.15 K | 894.65
303.15 K | 888.52
308.15 K | 882.35
313.15 K | 876.12

OCc1ccccc1 [benzenemethanol] + C=COC(C)=O
[2], x1 = 1
Settings | mass density [kg/m3]
293.15 K | 1045.21
298.15 K | 1041.38
303.15 K | 1037.5
308.15 K | 1033.63
313.15 K | 1029.71
